Experimental data reported in US20230233576A1, “ECLITASERTIB FOR USE IN TREATING CONDITIONS INVOLVING SYSTEMIC HYPERINFLAMMATORY RESPONSE” (priority 2020, published 2023).

Test system: SARS-COV-2 viral load in blood
Assay: Phase 1b severe COVID-19 study: quantitative SARS-COV-2 viral load in blood
Conditions: for Viral load in plasma: <1660 CP/ML SARS-COV2, number of participants / Viral load in plasma: <1660 CP/ML SARS-COV2, share of participants (in parentheses) / Viral load in plasma: INCONCLUSIVE, number of participants / Viral load in plasma: INCONCLUSIVE, share of participants (in parentheses) / Viral load in plasma: NO SARS-COV2 DETECTED, number of participants / Viral load in plasma: NO SARS-COV2 DETECTED, share of participants (in parentheses) / Viral load in plasma: POSITIVE RESULT, number of participants / Viral load in plasma: POSITIVE RESULT, share of participants (in parentheses): 600 mg (N = 41); for Viral load in plasma: Positive result, Mean / Viral load in plasma: Positive result, Median: 600 mg, participants with positive result
Text: The clinical assessment in this study included both the assessment of clinical laboratory variables (CRP, laboratory markers of severe COVID-19 [D-Dimer, hematology parameters and thrombolytic therapy and vasopressor treatment]), oxygenation variables (saturated oxygen [SpO2], SpO2/fraction of inspired oxygen [FiO2] ratio), and clinical status variables (7-point clinical scale). The pharmacodynamic assessment included the measurement of peripheral biomarkers (pro-inflammatory cytokines and RIPK1 PD cytokines/chemokines), and optional measurement of viral load of SARS-CoV-2.
Exploratory clinical assessments endpoints included: • Change from baseline in ferritin and LDH at Day 7 and EOT • Proportion of participants per category of the 7-point clinical scale at EOT • Time to improvement by 2 points in category of 7-point clinical scale • Quantitative SARS-COV-2 viral load in blood at baseline and on Day 3, 5, 7 and EOT
Summary of quantitative measurement of SARS-COV-2 plasma viral load over time (at baseline, Day 3, 5, 7, and EOT) is provided in Table 28. An overall trend of decrease viral load and increased number of negative SARS-COV-2 tests were observed over time. Due to a high variability in the viral load values, no interpretation could be drawn for the effect of treatment on the viral load.

Structure (SMILES): CN1C(=O)[C@@H](NC(=O)c2nnc(Cc3ccccc3)[nH]2)COc2cccnc21 [RIPK1 Inhibitor, (S)-5-benzyl-N-(5-methyl-4-oxo-2,3,4,5-tetrahydropyrido[3,2-b][1,4]oxazepin-3-yl)-4H-1,2,4-triazole-3-carboxamide]
- Viral load in plasma: <1660 CP/ML SARS-COV2, number of participants (DAY 01 (baseline, predose)): 14
- Viral load in plasma: <1660 CP/ML SARS-COV2, share of participants (in parentheses) (DAY 01 (baseline, predose)): (34.1)
- Viral load in plasma: INCONCLUSIVE, number of participants (DAY 01 (baseline, predose)): 1
- Viral load in plasma: INCONCLUSIVE, share of participants (in parentheses) (DAY 01 (baseline, predose)): (2.4)
- Viral load in plasma: NO SARS-COV2 DETECTED, number of participants (DAY 01 (baseline, predose)): 11
- Viral load in plasma: NO SARS-COV2 DETECTED, share of participants (in parentheses) (DAY 01 (baseline, predose)): (26.8)
- Viral load in plasma: POSITIVE RESULT, number of participants (DAY 01 (baseline, predose)): 7
- Viral load in plasma: POSITIVE RESULT, share of participants (in parentheses) (DAY 01 (baseline, predose)): (17.1)
- Viral load in plasma: <1660 CP/ML SARS-COV2, number of participants (DAY 03): 12
- Viral load in plasma: <1660 CP/ML SARS-COV2, share of participants (in parentheses) (DAY 03): (29.3)
- Viral load in plasma: INCONCLUSIVE, number of participants (DAY 03): 2
- Viral load in plasma: INCONCLUSIVE, share of participants (in parentheses) (DAY 03): (4.9)
- Viral load in plasma: NO SARS-COV2 DETECTED, number of participants (DAY 03): 16
- Viral load in plasma: NO SARS-COV2 DETECTED, share of participants (in parentheses) (DAY 03): (39.0)
- Viral load in plasma: POSITIVE RESULT, number of participants (DAY 03): 4
- Viral load in plasma: POSITIVE RESULT, share of participants (in parentheses) (DAY 03): (9.8)
- Viral load in plasma: <1660 CP/ML SARS-COV2, number of participants (DAY 07): 1
- Viral load in plasma: <1660 CP/ML SARS-COV2, share of participants (in parentheses) (DAY 07): (2.4)
- Viral load in plasma: INCONCLUSIVE, number of participants (DAY 07): 2
- Viral load in plasma: INCONCLUSIVE, share of participants (in parentheses) (DAY 07): (4.9)
- Viral load in plasma: NO SARS-COV2 DETECTED, number of participants (DAY 07): 12
- Viral load in plasma: NO SARS-COV2 DETECTED, share of participants (in parentheses) (DAY 07): (29.3)
- Viral load in plasma: POSITIVE RESULT, number of participants (DAY 07): 1
- Viral load in plasma: POSITIVE RESULT, share of participants (in parentheses) (DAY 07): (2.4)
- Viral load in plasma: <1660 CP/ML SARS-COV2, number of participants (EOT): 4
- Viral load in plasma: <1660 CP/ML SARS-COV2, share of participants (in parentheses) (EOT): (9.8)
- Viral load in plasma: INCONCLUSIVE, number of participants (EOT): 1
- Viral load in plasma: INCONCLUSIVE, share of participants (in parentheses) (EOT): (2.4)
- Viral load in plasma: NO SARS-COV2 DETECTED, number of participants (EOT): 28
- Viral load in plasma: NO SARS-COV2 DETECTED, share of participants (in parentheses) (EOT): (68.3)
- Viral load in plasma: POSITIVE RESULT, number of participants (EOT): 0
- Viral load in plasma: Positive result, Mean (DAY 01 (baseline, predose)): 30217.6 copies/mL
- Viral load in plasma: Positive result, Median (DAY 01 (baseline, predose)): 7560.0 copies/mL
- Viral load in plasma: Positive result, Mean (DAY 03): 7505.0 copies/mL
- Viral load in plasma: Positive result, Median (DAY 03): 6332.5 copies/mL
- Viral load in plasma: Positive result, Mean (DAY 07): 6240.0 copies/mL
- Viral load in plasma: Positive result, Median (DAY 07): 6240.0 copies/mL
